The record followed here is ChEMBL document CHEMBL1773071, “Development of tricyclic hydroxy-1H-pyrrolopyridine-trione containing HIV-1 integrase inhibitors” (Bioorg Med Chem Lett, 2011).

Series [1] has as its target T1, Human immunodeficiency virus type 1 integrase (Human immunodeficiency virus 1, UniProt Q7ZJM1). As to the kind of experiment: Inhibition of HIV1 recombinant integrase 3'-processing activity expressed in Escherichia coli after 30 mins using [32P]-labeled oligonucleotide as a substrate by densitometric analysis.
Series [2] has as its target T1, Human immunodeficiency virus type 1 integrase. As to the kind of experiment: Inhibition of HIV1 recombinant integrase strand transfer activity expressed in Escherichia coli after 30 mins using [32P]-labeled oligonucleotide as a substrate by densitometric analysis.
Series [3] concerns Human immunodeficiency virus 1. As to the kind of experiment: Antiviral activity against HIV1 harboring wild-type integrase infected in human HOS cells. It is filed as functional, organism-based. The following applies: Human immunodeficiency virus 1, HOS.
In series [4] the target is T1, Human immunodeficiency virus type 1 integrase. Briefly: Inhibition of HIV1 recombinant integrase 3'-processing activity expressed in Escherichia coli after 60 mins using [32P]-labeled oligonucleotide as a substrate by densitometric analysis in presence of cofactor magnesium.
Series [5] has the same target. Briefly: Inhibition of HIV1 recombinant integrase 3'-processing activity expressed in Escherichia coli after 60 mins using [32P]-labeled oligonucleotide as a substrate by densitometric analysis in presence of cofactor manganese.
Series [6] shares this target. As to the kind of experiment: Inhibition of HIV1 recombinant integrase strand transfer activity expressed in Escherichia coli after 60 mins using [32P]-labeled oligonucleotide as a substrate by densitometric analysis in presence of cofactor magnesium.
Series [7] shares this target. Briefly: Inhibition of HIV1 recombinant integrase strand transfer activity expressed in Escherichia coli after 60 mins using [32P]-labeled oligonucleotide as a substrate by densitometric analysis in presence of cofactor manganese.
In series [8] the test system is HOS. As to the kind of experiment: Cytotoxicity against human HOS cells assessed as ATP level after 48 hrs by luciferase reporter assay. The format is cell-based.
Series [9] concerns Human immunodeficiency virus 1. Briefly: Resistant fold, ratio of EC50 for HIV1 harboring integrase G140S/Q148H mutant to EC50 for HIV1 harboring wild-type integrase. The format is functional.
In series [10] the test system is Human immunodeficiency virus 1. As to the kind of experiment: Resistant fold, ratio of EC50 for HIV1 harboring integrase Y143R mutant to EC50 for HIV1 harboring wild-type integrase. The format is functional.
In series [11] the test system is Human immunodeficiency virus 1. As to the kind of experiment: Resistant fold, ratio of EC50 for HIV1 harboring integrase N155H mutant to EC50 for HIV1 harboring wild-type integrase. It is filed as functional.

T1 sequence (Q7ZJM1 whole entry): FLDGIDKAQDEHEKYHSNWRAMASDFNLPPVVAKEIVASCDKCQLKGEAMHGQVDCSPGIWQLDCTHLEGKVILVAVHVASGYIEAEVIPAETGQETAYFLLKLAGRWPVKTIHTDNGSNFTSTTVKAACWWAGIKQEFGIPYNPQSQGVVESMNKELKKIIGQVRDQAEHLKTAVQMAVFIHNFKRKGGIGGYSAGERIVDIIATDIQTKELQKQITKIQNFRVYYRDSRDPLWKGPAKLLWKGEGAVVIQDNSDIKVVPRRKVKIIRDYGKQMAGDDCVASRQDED

As for `O=C1c2c(c3n(c(=O)c2O)CCCCC3)C(=O)N1Cc1ccc(F)c(F)c1`, the IC50 in series [1] was above 111 µM; in series [2] it was 6.01 µM.
The like results for `O=C1c2c(c3n(c(=O)c2O)CCC3)C(=O)N1Cc1ccc(F)c(Cl)c1` were, in that order, above 111 µM and 10.9 µM.
On the same counts, the results for `O=C1c2c(c3n(c(=O)c2O)CCCCC3)C(=O)N1Cc1ccccc1` are above 111 µM and above 111 µM.
Consider `O=C1c2ccc(O)c(O)c2C(=O)N1Cc1ccc(F)c(F)c1`, for which the concentration for half-maximal inhibition (IC50) in [2] was found to be 0.14 µM.
In the case of `O=C1c2c(c3n(c(=O)c2O)CCCCC3)C(=O)N1Cc1cccc(Cl)c1F`, the IC50 in [1] is above 111 µM; in series [2], 9.2 µM.
On the same counts, the results for `O=C1c2c(c3n(c(=O)c2O)CCCCC3)C(=O)N1Cc1ccc(F)c(Cl)c1` are above 111 µM and 6 µM.
Take `O=C1c2ccc(O)c(O)c2C(=O)N1Cc1ccc(F)cc1`: the half-inhibitory concentration (IC50) in [2] came out at 5.3 µM.
In the case of `O=C1c2c(c3n(c(=O)c2O)CCCCC3)C(=O)N1Cc1cccc2ccccc12`, the IC50 was above 111 µM in series [1] and 90.5 µM in [2].
In series [3], `Cc1nnc(C(=O)NC(C)(C)c2nc(C(=O)NCc3ccc(F)cc3)c(O)c(=O)n2C)o1` displayed an EC50 of 0.004 µM. This counts as single-digit nanomolar.
With `O=C1c2c(c3n(c(=O)c2O)CCCC3)C(=O)N1Cc1ccc(F)c(Cl)c1`, the half-maximal inhibitory concentration (IC50) is above 111 µM in series [1]; 9.1 µM in series [2]; above 111 µM in series [4]; 28 µM in series [5]; 9.1 µM in series [6]; 1.2 µM in series [7]. Further, the CC50 in [8] was determined as 291 µM. Moreover, the EC50 in [3] was 61 µM. The “Ratio EC50” value was 2 in series [9], 4 in series [10] and 3 in [11].
`O=C1c2ccc(O)c(O)c2C(=O)N1Cc1cccc(Cl)c1F`: the IC50 in series [2] was 1.7 µM.
With `O=C1c2c(c3n(c(=O)c2O)CCCCC3)C(=O)N1Cc1ccc(F)cc1`, the concentration for half-maximal inhibition (IC50) in series [1] was above 111 µM; in series [2] it was 10.4 µM.
With `O=C1c2c(c3n(c(=O)c2O)CCCCCC3)C(=O)N1Cc1ccc(F)c(Cl)c1`, the results for the half-inhibitory concentration (IC50) in series [1] and in series [2] were above 111 µM and 5.4 µM, respectively.
